Laboratory results from ChEMBL document CHEMBL1151105, “Antitumor principles in mosses: the first isolation and identification of maytansinoids, including a novel 15-methoxyansamitocin P-3” (J Nat Prod, 1988).
The source made the active and inactive calls. The rule behind the calls is not given here.

Each molecule was assayed on P388 (assay: Cytotoxicity against mouse P388 cells after 48 hrs).
Type: functional, cell-based

Row | SMILES | Activity
1 | COc1cc2cc(c1Cl)N(C)C(=O)C[C@H](OC(=O)C(C)N(C)C(=O)C(C)C)[C@]1(C)O[C@H]1[C@H](C)[C@@H]1C[C@@](O)(NC(=O)O1)[C@H](OC)/C=C/C=C(\C)C2 (some centres undefined) | Active
2 | COc1cc2cc(c1Cl)N(C)C(=O)C[C@H](OC(=O)C(C)C)[C@]1(C)O[C@H]1[C@H](C)[C@@H]1C[C@@](O)(NC(=O)O1)[C@H](OC)/C=C/C=C(\C)C2OC (some centres undefined) | Active
3 | COc1cc2cc(c1Cl)N(C)C(=O)C[C@H](OC(=O)C(C)N(C)C(=O)C(C)C)[C@]1(C)O[C@H]1[C@H](C)[C@@H]1C[C@@](O)(NC(=O)O1)[C@H](OC)/C=C/C=C(\C)C2OC (some centres undefined) | Active
4 | COc1cc2cc(c1Cl)N(C)C(=O)C[C@H](OC(=O)C(C)C)[C@]1(C)O[C@H]1[C@H](C)[C@@H]1C[C@@](O)(NC(=O)O1)[C@H](OC)/C=C/C=C(\C)C2 | Active
